Our source for the IC50 values is patent US10227350B2 (Gilead Sciences, Inc., priority 2016, dated 2019).

PI3Kβ, sequence (P42338 whole entry, the tested form may be a part): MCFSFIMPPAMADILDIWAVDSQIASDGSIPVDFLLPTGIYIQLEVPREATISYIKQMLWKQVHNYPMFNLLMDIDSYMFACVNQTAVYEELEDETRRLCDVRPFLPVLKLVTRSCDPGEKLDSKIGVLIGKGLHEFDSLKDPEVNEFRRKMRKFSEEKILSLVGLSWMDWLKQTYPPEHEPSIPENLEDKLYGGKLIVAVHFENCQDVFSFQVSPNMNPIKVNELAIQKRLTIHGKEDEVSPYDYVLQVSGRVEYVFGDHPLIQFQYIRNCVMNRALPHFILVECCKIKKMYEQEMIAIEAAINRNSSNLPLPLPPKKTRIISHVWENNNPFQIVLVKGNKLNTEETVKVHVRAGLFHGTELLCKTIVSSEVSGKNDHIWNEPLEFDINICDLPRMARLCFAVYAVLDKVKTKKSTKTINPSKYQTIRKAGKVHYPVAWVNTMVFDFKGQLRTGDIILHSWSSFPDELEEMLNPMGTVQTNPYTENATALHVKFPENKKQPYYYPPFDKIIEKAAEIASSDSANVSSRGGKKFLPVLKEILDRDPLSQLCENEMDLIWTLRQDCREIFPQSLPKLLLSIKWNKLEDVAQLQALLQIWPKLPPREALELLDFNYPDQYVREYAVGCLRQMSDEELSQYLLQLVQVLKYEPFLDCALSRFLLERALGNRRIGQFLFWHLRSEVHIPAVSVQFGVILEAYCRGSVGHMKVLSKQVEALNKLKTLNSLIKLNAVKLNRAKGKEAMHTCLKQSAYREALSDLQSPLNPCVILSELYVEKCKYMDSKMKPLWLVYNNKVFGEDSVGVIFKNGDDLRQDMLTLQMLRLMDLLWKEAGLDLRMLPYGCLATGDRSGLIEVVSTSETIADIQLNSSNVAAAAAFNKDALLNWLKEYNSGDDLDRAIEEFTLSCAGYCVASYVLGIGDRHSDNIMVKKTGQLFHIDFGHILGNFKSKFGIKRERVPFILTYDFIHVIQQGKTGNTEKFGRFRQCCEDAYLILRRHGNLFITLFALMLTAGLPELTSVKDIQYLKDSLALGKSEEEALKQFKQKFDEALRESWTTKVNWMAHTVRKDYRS
PI3Kβ, sequence (P27986 whole entry partner, the tested form may be a part): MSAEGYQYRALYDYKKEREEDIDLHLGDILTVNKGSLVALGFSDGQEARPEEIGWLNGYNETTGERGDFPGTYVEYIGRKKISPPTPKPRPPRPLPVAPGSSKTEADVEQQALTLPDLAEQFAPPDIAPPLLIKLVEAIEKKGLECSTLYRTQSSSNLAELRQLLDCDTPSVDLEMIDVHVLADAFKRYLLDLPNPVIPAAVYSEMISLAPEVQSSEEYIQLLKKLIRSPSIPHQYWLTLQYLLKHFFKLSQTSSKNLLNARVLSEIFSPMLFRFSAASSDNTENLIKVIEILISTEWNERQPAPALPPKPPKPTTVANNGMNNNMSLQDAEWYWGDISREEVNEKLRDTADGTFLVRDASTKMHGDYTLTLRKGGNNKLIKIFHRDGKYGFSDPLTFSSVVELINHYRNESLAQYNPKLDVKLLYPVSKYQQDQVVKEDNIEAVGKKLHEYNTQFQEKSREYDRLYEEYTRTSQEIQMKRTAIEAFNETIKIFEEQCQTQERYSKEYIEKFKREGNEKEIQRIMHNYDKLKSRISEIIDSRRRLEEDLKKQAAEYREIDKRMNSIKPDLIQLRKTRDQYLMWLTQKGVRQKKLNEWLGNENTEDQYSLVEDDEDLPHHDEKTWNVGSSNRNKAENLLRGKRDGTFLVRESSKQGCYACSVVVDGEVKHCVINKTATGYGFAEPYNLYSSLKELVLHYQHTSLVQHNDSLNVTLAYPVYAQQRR

The test has as its target PI3Kβ (Homo sapiens (Human), UniProt P42338). Kind of test: TR-FRET enzymatic activity assay, PI3Kβ. It counts as biochemical. Conditions: 2× Km ATP, 2 μM PIP2, 30 minutes at 25° C., read-out: IC50-PIP-Beta. Summed up: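 Purified recombinant heterodimeric PI3Kβ; PIP3 formation read by TR-FRET as competition with fluorescent tracer for GRP-1 PH domain binding. Compounds incubated 30 min at 25 °C.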
For orientation: Time-resolved FRET reads energy transfer from a long-lived donor to a nearby acceptor.
Take `CNc1cc(-c2cc(-c3nnc[nH]3)c3nc(C)n(-c4ccnc5c(F)ccc(F)c45)c3c2)c(F)cn1` [Example 82, 4-[3-(5,8-difluoroquinolin-4-yl)-2-methyl-7-(4H-1,2,4-triazol-3-yl)benzimidazol-5-yl]-5-fluoro-N-methylpyridin-2-amine]: the IC50 (in general, the concentration needed to halve the response being measured) was 120 nM. The result for `Cc1nc2c(-c3nnc[nH]3)cc(-c3ccnc(N)c3F)cc2n1-c1ccnc2c(Cl)ccc(F)c12` [Example 83, 4-[3-(8-chloro-5-fluoroquinolin-4-yl)-2-methyl-7-(4H-1,2,4-triazol-3-yl)benzimidazol-5-yl]-3-fluoropyridin-2-amine] reads 2 nM; that for `Nc1nccc(-c2cc(-c3nnc[nH]3)c3nc(C4CC4)n(-c4ccnc5c(Cl)ccc(F)c45)c3c2)c1F` [Example 85, 4-[3-(8-chloro-5-fluoroquinolin-4-yl)-2-cyclopropyl-7-(4H-1,2,4-triazol-3-yl)benzimidazol-5-yl]-3-fluoropyridin-2-amine], 3 nM. In the case of `Cc1nc2c(-c3nnc[nH]3)cc(-c3ccnc(N)c3F)cc2n1-c1ccnc2c(F)cccc12` [Example 86, 3-fluoro-4-[3-(8-fluoroquinolin-4-yl)-2-methyl-7-(4H-1,2,4-triazol-3-yl)benzimidazol-5-yl]pyridin-2-amine] it was 7 nM; in that of `CCCc1nc2c(-c3nnc[nH]3)cc(-c3ccnc(N)c3F)cc2n1-c1ccnc2c(F)cccc12` [Example 87, 3-fluoro-4-[3-(8-fluoroquinolin-4-yl)-2-propyl-7-(4H-1,2,4-triazol-3-yl)benzimidazol-5-yl]pyridin-2-amine], 12 nM; in that of `Nc1nccc(-c2cc(-c3nnc[nH]3)c3nc(C4CC4)n(-c4ccnc5c(F)cccc45)c3c2)c1F` [Example 88, 4-[2-cyclopropyl-3-(8-fluoroquinolin-4-yl)-7-(4H-1,2,4-triazol-3-yl)benzimidazol-5-yl]-3-fluoropyridin-2-amine], 110 nM.

In the case of `Cc1cnc2c(Cl)cccc2c1-n1c(C)nc2c(-c3nnc[nH]3)cc(-c3ccnc(N)c3F)cc21` [Example 89, 4-[3-(8-chloro-3-methylquinolin-4-yl)-2-methyl-7-(4H-1,2,4-triazol-3-yl)benzimidazol-5-yl]-3-fluoropyridin-2-amine], the 50% inhibitory concentration (IC50) was determined as 3 nM. Take `Cc1cc(-c2cc(-c3nnc[nH]3)c3nc(C)n(-c4ccnc5c(F)ccc(F)c45)c3c2)cc(N)n1` [Example 90, 4-[3-(5,8-difluoroquinolin-4-yl)-2-methyl-7-(4H-1,2,4-triazol-3-yl)benzimidazol-5-yl]-6-methylpyridin-2-amine]: the IC50 came out at 340 nM. The result for `Cc1nc2c(-c3nnc[nH]3)cc(-c3ccnc(N)c3Cl)cc2n1-c1ccnc2c(F)ccc(F)c12` [Example 91, 3-chloro-4-[3-(5,8-difluoroquinolin-4-yl)-2-methyl-7-(4H-1,2,4-triazol-3-yl)benzimidazol-5-yl]pyridin-2-amine] reads 19 nM; that for `Cc1nc2c(-c3nnc[nH]3)cc(-c3ccnc(N)c3F)cc2n1-c1c(Cl)cnc2c(F)cccc12` [Example 92, 4-[3-(3-chloro-8-fluoroquinolin-4-yl)-2-methyl-7-(4H-1,2,4-triazol-3-yl)benzimidazol-5-yl]-3-fluoropyridin-2-amine], 51 nM; that for `Cc1nc2c(-c3nnc[nH]3)cc(-c3ccnc(N)c3F)cc2n1-c1ccnc2cccc(F)c12` [Example 93, 3-fluoro-4-[3-(5-fluoroquinolin-4-yl)-2-methyl-7-(4H-1,2,4-triazol-3-yl)benzimidazol-5-yl]pyridin-2-amine], 5 nM. For the molecule `CCc1nc2c(-c3nnc[nH]3)cc(-c3ccnc(N)c3F)cc2n1-c1ccnc2cccc(F)c12` [Example 94, 4-[2-ethyl-3-(5-fluoroquinolin-4-yl)-7-(4H-1,2,4-triazol-3-yl)benzimidazol-5-yl]-3-fluoropyridin-2-amine], the IC50 was 8 nM.

Turning to `CCc1nc2c(-c3nnc[nH]3)cc(-c3ccnc(N)c3F)cc2n1-c1ccnc2c(F)ccc(F)c12` [Example 95, 4-[3-(5,8-difluoroquinolin-4-yl)-2-ethyl-7-(4H-1,2,4-triazol-3-yl)benzimidazol-5-yl]-3-fluoropyridin-2-amine], the IC50 came to 5 nM. In the case of `Nc1nccc(-c2cc(-c3nnc[nH]3)c3nc(CC4CC4)n(-c4ccnc5c(F)ccc(F)c45)c3c2)c1F` [Example 96, 4-[2-(cyclopropylmethyl)-3-(5,8-difluoroquinolin-4-yl)-7-(4H-1,2,4-triazol-3-yl)benzimidazol-5-yl]-3-fluoropyridin-2-amine] it was 7 nM; in that of `Cc1nnc(-c2cc(-c3ccnc(N)c3F)cc3c2nc(C)n3-c2ccnc3c(F)ccc(F)c23)[nH]1` [Example 97, 4-[3-(5,8-difluoroquinolin-4-yl)-2-methyl-7-(5-methyl-4H-1,2,4-triazol-3-yl)benzimidazol-5-yl-]3-fluoropyridin-2-amine], 31 nM. The result for `Cc1nnc(-c2cc(-c3ccnc(N)c3F)cc3c2nc(C)n3-c2ccnc3c(Cl)ccc(F)c23)[nH]1` [Example 98, 4-[3-(8-chloro-5-fluoroquinolin-4-yl)-2-methyl-7-(5-methyl-4H-1,2,4-triazol-3-yl)benzimidazol-5-yl]-3-fluoropyridin-2-amine] reads 6 nM; that for `Cc1nc2c(-c3nnc[nH]3)cc(-c3ccnc(N)c3F)cc2n1-c1ccnc2c(F)ccc(Cl)c12` [Example 99, 4-[3-(5-chloro-8-fluoroquinolin-4-yl)-2-methyl-7-(4H-1,2,4-triazol-3-yl)benzimidazol-5-yl]-3-fluoropyridin-2-amine], 29 nM; that for `Cc1nc2c(-c3nnc[nH]3)cc(-c3c(F)cnc(N)c3F)cc2n1-c1ccnc2c(F)ccc(F)c12` [Example 100, 4-[3-(5,8-difluoroquinolin-4-yl)-2-methyl-7-(4H-1,2,4-triazol-3-yl)benzimidazol-5-yl]-3,5-difluoropyridin-2-amine], 320 nM. The result for `Cc1c(-c2cc(-c3nnc[nH]3)c3nc(C)n(-c4ccnc5c(F)ccc(F)c45)c3c2)ccnc1N` [Example 101, 4-[3-(5,8-difluoroquinolin-4-yl)-2-methyl-7-(4H-1,2,4-triazol-3-yl)benzimidazol-5-yl]-3-methylpyridin-2-amine] reads 2800 nM. `Nc1nccc(-c2cc(-c3nnc[nH]3)c3ncn(-c4ccnc5c(F)ccc(F)c45)c3c2)c1F` [Example 102, 4-[3-(5,8-difluoroquinolin-4-yl)-7-(4H-1,2,4-triazol-3-yl)benzimidazol-5-yl]-3-fluoropyridin-2-amine]: the IC50 was found to be 11 nM. In the case of `Cc1nc2c(-c3nnc[nH]3)cc(-c3ccnc(C#N)c3)cc2n1-c1ccnc2cc(F)cc(F)c12` [Example 143, 4-(1-(5,7-difluoroquinolin-4-yl)-2-methyl-4-(4H-1,2,4-triazol-3-yl)-1H-benzo[d]imidazol-6-yl)picolinonitrile], the IC50 is 6 nM. Take `Cc1nc2c(-c3nnc[nH]3)cc(-c3ccnc(C#N)c3)cc2n1-c1ccnc2c(F)ccc(Cl)c12` [Example 144, 4-(1-(5-chloro-8-fluoroquinolin-4-yl)-2-methyl-4-(4H-1,2,4-triazol-3-yl)-1H-benzo[d]imidazol-6-yl)picolinonitrile]: the IC50 came to 18 nM. In the case of `Cc1nc2c(-c3nnc[nH]3)cc(-c3ccnc(C#N)c3)cc2n1-c1ccnc2c(Cl)ccc(Cl)c12` [Example 145, 4-(1-(5,8-dichloroquinolin-4-yl)-2-methyl-4-(4H-1,2,4-triazol-3-yl)-1H-benzo[d]imidazol-6-yl)picolinonitrile], the IC50 came to 2 nM. As for `Cc1nc2c(-c3nnc[nH]3)cc(-c3ccnc(C#N)c3)cc2n1-c1ccnc2cccc(Cl)c12` [Example 146, 4-(1-(5-chloroquinolin-4-yl)-2-methyl-4-(4H-1,2,4-triazol-3-yl)-1H-benzo[d]imidazol-6-yl)picolinonitrile], the IC50 came out at 200 nM.

As for `Cc1nc2c(-c3nnc[nH]3)cc(-c3ccnc(C#N)c3)cc2n1-c1ccnc2cccc(F)c12` [Example 147, 4-(1-(5-fluoroquinolin-4-yl)-2-methyl-4-(4H-1,2,4-triazol-3-yl)-1H-benzo[d]imidazol-6-yl)picolinonitrile], the IC50 was found to be 4 nM.

On to `Cc1nc2c(-c3nnc[nH]3)cc(-c3ccnc(C#N)c3)cc2n1-c1ccnc2c(F)cccc12` [Example 148, 4-(1-(8-fluoroquinolin-4-yl)-2-methyl-4-(4H-1,2,4-triazol-3-yl)-1H-benzo[d]imidazol-6-yl)picolinonitrile], for which the IC50 was determined as 16 nM. For the molecule `Cc1nc2c(-c3nnc[nH]3)cc(-c3ccnc(C#N)c3)cc2n1-c1ccnc2c(Cl)cccc12` [Example 149, 4-(1-(8-chloroquinolin-4-yl)-2-methyl-4-(4H-1,2,4-triazol-3-yl)-1H-benzo[d]imidazol-6-yl)picolinonitrile], the IC50 came out at 4 nM.

In the case of `Cc1nnc(-c2cc(-c3ccnc(C#N)c3)cc3c2nc(C)n3-c2ccnc3c(Cl)ccc(F)c23)[nH]1` [Example 150, 4-(1-(8-chloro-5-fluoroquinolin-4-yl)-2-methyl-4-(5-methyl-4H-1,2,4-triazol-3-yl)-1H-benzo[d]imidazol-6-yl)picolinonitrile], the IC50 worked out at 13 nM. The result for `Cc1nnc(-c2cc(-c3ccnc(C#N)c3)cc3c2nc(C)n3-c2ccnc3c(F)ccc(F)c23)[nH]1` [Example 151, 4-(1-(5,8-difluoroquinolin-4-yl)-2-methyl-4-(5-methyl-4H-1,2,4-triazol-3-yl)-1H-benzo[d]imidazol-6-yl)picolinonitrile] reads 80 nM.

As to `Cc1nc2c(-c3nnc[nH]3)cc(-c3ccnc(C#N)n3)cc2n1-c1ccnc2c(F)ccc(F)c12` [Example 152, 4-(1-(5,8-difluoroquinolin-4-yl)-2-methyl-4-(4H-1,2,4-triazol-3-yl)-1H-benzo[d]imidazol-6-yl)pyrimidine-2-carbonitrile], the IC50 was 10 nM. In the case of `Cc1nc2c(-c3nnc[nH]3)cc(-c3ccnc(C#N)c3)cc2n1-c1ccnc2c(Cl)ccc(F)c12` [Example 153, 4-(1-(8-chloro-5-fluoroquinolin-4-yl)-2-methyl-4-(4H-1,2,4-triazol-3-yl)-1H-benzo[d]imidazol-6-yl)picolinonitrile] it was 7 nM.
